We go through one compound from BindingDB's records for doi:10.1046/j.1468-2982.2001.00157.x (Roche Bioscience, 2001).

The target in assay [1] is 5-hydroxytryptamine receptor 2A (Rattus norvegicus, UniProt P14842).
Assay [2] has as its target T1, 5-hydroxytryptamine receptor 3A (Rattus norvegicus, UniProt P35563).
T1 sequence (P35563 whole entry): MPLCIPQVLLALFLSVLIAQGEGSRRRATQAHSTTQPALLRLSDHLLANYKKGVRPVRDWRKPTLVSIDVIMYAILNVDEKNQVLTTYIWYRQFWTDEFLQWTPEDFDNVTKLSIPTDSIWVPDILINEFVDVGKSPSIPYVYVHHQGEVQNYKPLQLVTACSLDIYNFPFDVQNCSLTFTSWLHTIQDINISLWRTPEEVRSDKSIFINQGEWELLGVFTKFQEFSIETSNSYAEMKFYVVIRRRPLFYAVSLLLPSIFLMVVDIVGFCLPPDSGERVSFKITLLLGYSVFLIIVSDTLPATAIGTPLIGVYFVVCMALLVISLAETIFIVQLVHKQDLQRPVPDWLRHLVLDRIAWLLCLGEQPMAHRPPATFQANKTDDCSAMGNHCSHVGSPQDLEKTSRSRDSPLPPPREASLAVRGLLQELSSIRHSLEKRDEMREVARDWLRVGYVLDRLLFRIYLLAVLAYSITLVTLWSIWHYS

Assay [3] has as its target 5-hydroxytryptamine receptor 7 (Rattus norvegicus, UniProt P32305).
The target in assay [4] is 5-hydroxytryptamine receptor 1D (Rattus norvegicus, UniProt P28565).
The target of assay [5] is 5-hydroxytryptamine receptor 1B (Rattus norvegicus, UniProt P28564).
Assay [6] concerns the target 5-hydroxytryptamine receptor 6 (Rattus norvegicus, UniProt P31388).

Each structure is given as a SMILES string.

Chain of 5-hydroxytryptamine receptor 6 (P31388 whole entry): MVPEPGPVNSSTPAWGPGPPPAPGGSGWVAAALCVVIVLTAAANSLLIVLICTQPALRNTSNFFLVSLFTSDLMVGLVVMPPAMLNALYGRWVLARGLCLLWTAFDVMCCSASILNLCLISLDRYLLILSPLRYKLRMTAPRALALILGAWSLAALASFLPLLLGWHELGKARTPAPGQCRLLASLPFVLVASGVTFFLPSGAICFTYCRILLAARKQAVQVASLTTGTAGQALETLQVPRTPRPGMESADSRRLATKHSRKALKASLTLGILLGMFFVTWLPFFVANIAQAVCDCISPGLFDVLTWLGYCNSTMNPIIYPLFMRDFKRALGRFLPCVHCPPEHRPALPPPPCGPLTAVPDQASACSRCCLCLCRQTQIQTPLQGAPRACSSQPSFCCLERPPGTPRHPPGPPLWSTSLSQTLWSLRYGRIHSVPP
Chain of 5-hydroxytryptamine receptor 2A (P14842 whole entry): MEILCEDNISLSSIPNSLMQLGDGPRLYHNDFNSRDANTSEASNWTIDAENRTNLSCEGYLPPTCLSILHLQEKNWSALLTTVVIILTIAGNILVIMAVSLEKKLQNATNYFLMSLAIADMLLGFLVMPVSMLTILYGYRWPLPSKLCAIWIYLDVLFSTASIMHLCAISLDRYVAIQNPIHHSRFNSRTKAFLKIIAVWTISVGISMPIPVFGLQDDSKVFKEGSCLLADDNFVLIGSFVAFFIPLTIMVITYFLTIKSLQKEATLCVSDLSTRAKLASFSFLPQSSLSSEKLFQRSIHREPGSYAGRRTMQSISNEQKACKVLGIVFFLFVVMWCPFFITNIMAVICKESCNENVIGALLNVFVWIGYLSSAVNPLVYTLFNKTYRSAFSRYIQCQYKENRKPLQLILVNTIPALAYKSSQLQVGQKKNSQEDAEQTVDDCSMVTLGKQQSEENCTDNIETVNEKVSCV
Chain of 5-hydroxytryptamine receptor 1D (P28565 whole entry): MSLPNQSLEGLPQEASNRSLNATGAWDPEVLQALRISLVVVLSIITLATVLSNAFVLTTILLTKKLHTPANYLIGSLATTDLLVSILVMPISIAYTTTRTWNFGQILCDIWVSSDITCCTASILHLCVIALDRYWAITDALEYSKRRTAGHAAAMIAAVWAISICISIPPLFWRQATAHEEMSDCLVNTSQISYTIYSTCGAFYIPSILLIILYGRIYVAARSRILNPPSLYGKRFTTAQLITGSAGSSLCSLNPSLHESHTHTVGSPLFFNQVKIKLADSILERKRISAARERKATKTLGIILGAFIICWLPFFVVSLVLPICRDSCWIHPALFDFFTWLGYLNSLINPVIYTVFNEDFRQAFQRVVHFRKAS
Chain of 5-hydroxytryptamine receptor 7 (P32305 whole entry): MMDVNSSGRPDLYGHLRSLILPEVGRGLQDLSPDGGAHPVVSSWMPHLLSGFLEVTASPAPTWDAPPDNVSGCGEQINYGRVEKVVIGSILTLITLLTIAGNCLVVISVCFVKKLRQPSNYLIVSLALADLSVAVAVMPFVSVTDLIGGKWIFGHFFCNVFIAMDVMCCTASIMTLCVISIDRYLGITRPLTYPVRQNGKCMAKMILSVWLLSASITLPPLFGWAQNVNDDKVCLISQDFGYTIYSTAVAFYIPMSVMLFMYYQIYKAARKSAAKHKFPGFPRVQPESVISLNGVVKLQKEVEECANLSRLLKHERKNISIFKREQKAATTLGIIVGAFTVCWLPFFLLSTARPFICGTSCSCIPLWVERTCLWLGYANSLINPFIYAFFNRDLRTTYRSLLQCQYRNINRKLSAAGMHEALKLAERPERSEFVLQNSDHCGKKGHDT
Chain of 5-hydroxytryptamine receptor 1B (P28564 whole entry): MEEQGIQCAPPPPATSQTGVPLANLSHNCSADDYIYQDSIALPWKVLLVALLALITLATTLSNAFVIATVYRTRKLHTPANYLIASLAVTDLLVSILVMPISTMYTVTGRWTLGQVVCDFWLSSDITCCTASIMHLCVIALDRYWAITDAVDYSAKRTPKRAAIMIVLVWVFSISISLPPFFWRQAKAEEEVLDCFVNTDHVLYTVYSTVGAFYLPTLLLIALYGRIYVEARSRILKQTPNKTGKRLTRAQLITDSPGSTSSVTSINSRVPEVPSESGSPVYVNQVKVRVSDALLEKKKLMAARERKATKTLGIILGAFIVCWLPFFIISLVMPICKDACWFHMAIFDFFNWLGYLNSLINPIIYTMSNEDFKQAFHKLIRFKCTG

On to `Clc1cccc(N2CCNCC2)c1` [mCPP], for which the Ki (usually the dissociation constant of the complex between target and ligand, obtained from inhibition or displacement) was 200 nM in assay [1]; 100 nM in assay [2]; 251 nM in assay [3]; 1580 nM in assay [4]; 251 nM in assay [5]; 2510 nM in assay [6].
